Molecules are shown by their SMILES. Bounds are passed on as bounds.

In this assay the target is T1, hTRPV3 (Homo sapiens, UniProt Q8NET8).
T1 construct: expressed in transfected cells; host or cells: HEK-293
T1 sequence (Q8NET8 1-790): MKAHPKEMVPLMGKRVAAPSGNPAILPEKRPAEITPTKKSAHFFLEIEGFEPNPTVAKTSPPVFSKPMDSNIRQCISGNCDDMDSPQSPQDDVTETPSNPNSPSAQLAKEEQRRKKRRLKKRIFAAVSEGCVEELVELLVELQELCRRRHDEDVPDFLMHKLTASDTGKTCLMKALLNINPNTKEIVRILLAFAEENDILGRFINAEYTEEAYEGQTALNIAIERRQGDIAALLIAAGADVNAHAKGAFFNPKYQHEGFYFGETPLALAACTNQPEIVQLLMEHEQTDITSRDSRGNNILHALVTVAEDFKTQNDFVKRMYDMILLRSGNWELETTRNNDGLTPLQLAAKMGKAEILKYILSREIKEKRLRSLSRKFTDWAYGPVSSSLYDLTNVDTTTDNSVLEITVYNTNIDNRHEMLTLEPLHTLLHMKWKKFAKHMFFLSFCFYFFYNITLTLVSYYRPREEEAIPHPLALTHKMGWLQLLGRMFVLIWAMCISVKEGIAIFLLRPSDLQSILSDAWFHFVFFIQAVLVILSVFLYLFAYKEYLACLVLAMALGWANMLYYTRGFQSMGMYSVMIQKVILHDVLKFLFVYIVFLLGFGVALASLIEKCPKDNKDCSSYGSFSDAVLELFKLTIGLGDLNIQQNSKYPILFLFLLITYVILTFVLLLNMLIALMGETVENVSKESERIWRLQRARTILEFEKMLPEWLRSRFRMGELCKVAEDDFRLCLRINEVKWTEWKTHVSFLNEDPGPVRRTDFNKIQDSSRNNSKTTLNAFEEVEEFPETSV
In words: Whole cell patch clamp inhibition rate test on HEK-293 cells instantaneously expressing TRPV3. It counts as cell-based. The settings on record: HEK293; hTRPV3, single concentration 0.3 μM. The procedure:
In this study, HEK-293 cells instantaneously expressing TRPV3 were used for experimental detection.
The operation steps are as follows:
The cells were cultured in DMEM medium containing 10% fetal bovine serum at a temperature of 37° C. and a carbon dioxide concentration of 5%.
Day 1: Cells were inoculated into a 6-well plate with 5×10^5 cells per well.
Day 2: Transfection was performed using Lipofectamine 3000 transfection reagent, with a plasmid to transfection reagent ratio of 1 μg: 2 μL. The total amount of plasmid used per well was 3 μg. Specifically, two sterile centrifuge tubes were taken and 100 μL Opti-MEM was added to each tube. 6 μL Lipofectamine 3000 was added to one tube and mixed well; and 3 μg plasmid was added to another tube and mixed well, and then 6 μL P3000 was added and mixed well; Subsequently, the diluted plasmid DNA was added to diluted Lipofectamine 3000 and incubated at room temperature for 10-15 min. DNA liposome complex was dropped into the cells, shaked gently and mixed well, and then cultured in an incubator. The liquid was changed after 4 to 6 h.
Day 3: The cells were digested and seeded into 24 well plates with pre-placed cover slides, with 8×10^3 cells per well.
Day 4: Patch clamp testing was performed.
The voltage stimulation protocol for recording TRPV3 current using whole cell patch clamp is as follows: after forming a whole cell seal, a cell membrane voltage clamp was set at −80 mV. Firstly, a membrane potential was recorded at 0 mV, and then a voltage was command to start from −100 mV, to depolarize in the form of Ramp to 100 mV within 100 ms, and finally restore to 0 mV. Data collection was repeated every 5 seconds to observe the inhibitory effect of pharmaceutical on peak current. Experimental data was collected by EPC 10 amplifier (HEKA) and stored in PatchMaster (HEKA) software.
A microelectrode puller was used to pull the capillary glass tube into a recording electrode. The electrode filled with intracellular fluid was inserted into a microelectrode holder, and a microelectrode manipulator was operated under an inverted microscope to immerse the electrode in extracellular fluid and an electrode resistance (Rpip) was recorded. The electrode was brought into contact with the cell surface and a negative pressure suction was applied to form a high resistance seal (GΩ). At this point, a fast capacitance compensation was performed, and negative pressure was continued to apply in order to break the cell membrane, so that a whole cell recording mode was formed. Then, a slow capacitance compensation was performed and experimental parameters such as film capacitance (Cm) and series resistance (Rs) were recorded. No leakage compensation was provided.
When the TRPV3 current recorded by the whole cell had stabilized, administration was started. Each pharmaceutical concentration acted for 5 minutes (or until the current stabilized) before detecting the next concentration. A plurality of concentrations was tested for each test compound. A cover glass covered with cells was placed in a recording bath under an inverted microscope. A blank control extracellular solution and a working fluid for the compound to be tested sequentially flowed through the recording bath from low concentration to high concentration using gravity perfusion to act on the cells. Liquid exchange was performed using a peristaltic pump during recording. The current detected by each cell in the extracellular fluid without the compound served as its own control group. Each concentration was independently tested twice using at least two cells. All electrophysiological tests were conducted at room temperature.
For orientation: The patch-clamp technique gives a direct electrical read-out from membranes.
`O=C(c1ccc(F)cn1)N1CCC2(CCC(O)c3cc(-c4ccccc4C4CC4)ccc32)C1` (stereo not drawn) [Example 1, (6-(2-Cyclopropylphenyl)-4-hydroxy-3,4-dihydro-2H-spiro[naphthalene-1,3′-pyrrolidine]-1′-yl) (5-fluoropyridin-2-yl) ketone]: the inhibition (as a rule, the change of the read-out against control, counted positive when it falls) at 0.3 µM is under 25%. The compound `O=C(c1ccc(Cl)cn1)N1CCC2(CCC(O)c3cc(-c4ccccc4C4CC4)ccc32)C1` (stereo not drawn) [Example 2, (5-chloropyridin-2-yl)(6-(2-cyclopropylphenyl)-4-hydroxy-3,4-dihydro-2H-spiro[naphthalene-1,3′-pyrrolidine]-1′-yl) ketone] displayed an inhibition at 0.3 µM of under 25%. `O=C(c1ccc(F)cn1)N1CCC2(CC1)CC(O)c1cc(-c3ccccc3C3CC3)ccc12` (stereo not drawn) [Example 3, (5-(2-cyclopropylphenyl)-3-hydroxy-2,3-dihydrospiro[indene-1,4′-piperidine]-1′-yl)(5-fluoropyridin-2-yl) ketone]: the inhibition at 0.3 µM was in the range of 25 to 50%. Turning to `CC(C)c1ccccc1-c1ccc2c(c1)C(O)CC21CCN(C(=O)c2ccc(F)cn2)CC1` (stereo not drawn) [Example 4, (5-fluoropyridin-2-yl)(3-hydroxy-5-(2-isopropylphenyl)-2,3-dihydrospiro[indene-1,4′-piperidine]-1′-yl) ketone], the inhibition at 0.3 µM was 25 to 50%. The value for `CC1(O)CC2(CCN(C(=O)c3ccc(F)cn3)C2)c2ccc(-c3ccccc3C3CC3)cc21` (stereo not drawn) [Example 5, (5-(2-cyclopropylphenyl)-3-hydroxy-3-methyl-2,3-dihydrospiro[indene-1,3′-pyrrolidine]-1′-yl)(5-fluoropyridin-2-yl) ketone] was under 25%; that for `O=C(c1ccc(F)cn1)N1CCC2(C1)CC(O)(C(F)(F)F)c1cc(-c3ccccc3C3CC3)ccc12` (stereo not drawn) [Example 7, (5-(2-cyclopropylphenyl)-3-hydroxy-3-(trifluoromethyl)-2,3-dihydrospiro[indene-1,3′-pyrrolidine]-1′-yl)(5-fluoropyridin-2-yl) ketone] was under 25%; that for `O=C(c1ccc(F)cn1)N1CCC2(C1)OB(O)c1ccccc12` (stereo not drawn) [Example 8, (5-fluoropyridin-2-yl) (1-hydroxy-1H-spiro[benzo[c][1,2]oxaborolane-3,3′-pyrrolidine]-1′-yl) ketone] was under 25%. Compound `O=C(c1ccc(F)cn1)N1CCC2(C1)OB(O)c1cc(-c3ccccc3C3CC3)ccc12` (stereo not drawn) [Example 9, (6-(2-cyclopropylphenyl)-1-hydroxy-1H-spiro[benzo[c][1,2]oxaborolane-3,3′-pyrrolidine]-1′-yl)(5-fluoropyridin-2-yl) ketone] displayed an inhibition at 0.3 µM of 25 to 50%. Turning to `O=C(c1ccc(Cl)cn1)N1CCC2(C1)OB(O)c1cc(-c3ccccc3C3CC3)ccc12` (stereo not drawn) [Example 10, (5-chloropyridin-2-yl)(6-(2-cyclopropylphenyl)-1-hydroxy-1H-spiro[benzo[c][1,2]oxaborolane-3,3′-pyrrolidine]-1′-yl) ketone], the inhibition at 0.3 µM was 25 to 50%.

Take `[2H]C1(O)CC2(CN(C(=O)c3ccc(F)cn3)C([2H])([2H])C2)c2ccc(-c3ccccc3C3CC3)cc21` (stereo not drawn) [Example 11, (5-(2-cyclopropylphenyl)-3-hydroxy-2,3-dihydrospiro[indene-1,3′-pyrrolidine]-1′-yl-3,5′,5′-d3)(5-fluoropyridin-2-yl) ketone]: the inhibition at 0.3 µM is 70 to 100%.

Regarding `[2H]C1(O)CC2(CCN(C(=O)c3ccc(F)cn3)C2)c2ccc(-c3ccccc3C3CC3)cc21` (stereo not drawn) [Example 12, (5-(2-cyclopropylphenyl)-3-hydroxy-2,3-dihydrospiro[indene-1,3′-pyrrolidine]-1′-yl-3-d)(5-fluoropyridin-2-yl) ketone], the inhibition at 0.3 µM lay within 70 to 100%. For the compound `Cc1nc(C(=O)N2CCC3(CC(O)c4cc(-c5ccccc5C5CC5)ccc43)C2)ccc1O` (stereo not drawn) [Example 13, (5-(2-cyclopropylphenyl)-3-hydroxy-2,3-dihydrospiro[indene-1,3′-pyrrolidine]-1′-yl)(5-hydroxy-6-methylpyridin-2-yl) ketone], the inhibition at 0.3 µM was under 25%. The figure for `O=C(c1ccc(Cl)cn1)N1CCC2(CC(O)c3cc(-c4ccccc4C4CC4)ccc32)C1` (stereo not drawn) [Example 14, (5-chloropyridin-2-yl)(5-(2-cyclopropylphenyl)-3-hydroxy-2,3-dihydrospiro[indene-1,3′-pyrrolidine]-1′-yl) ketone] is 70 to 100%.

`CC(C)c1ccccc1-c1ccc2c(c1)C(O)CC21CCN(C(=O)c2ccc(F)cn2)C1` (stereo not drawn) [Example 16, (5-fluoropyridin-2-yl)(3-hydroxy-5-(2-isopropylphenyl)-2,3-dihydrospiro[indene-1,3′-pyrrolidine]-1′-yl) ketone] had an inhibition at 0.3 µM of 70 to 100%. The figure for `O=C(c1csc(Cl)n1)N1CCC2(CC(O)c3cc(-c4ccccc4C4CC4)ccc32)C1` (stereo not drawn) [Example 17, (2-chlorothiazol-4-yl)(5-(2-cyclopropylphenyl)-3-hydroxy-2,3-dihydrospiro[indene-1,3′-pyrrolidine]-1′-yl) ketone] is 70 to 100%; for `CC(C)c1ccccc1-c1ccc2c(c1)C(O)CC21CCN(C(=O)c2csc(Cl)n2)C1` (stereo not drawn) [Example 18, (2-chlorothiazol-4-yl)(3-hydroxy-5-(2-isopropylphenyl)-2,3-dihydrospiro[indene-1,3′-pyrrolidine]-1′-yl) ketone] it is 70 to 100%; for `O=C(c1cccc(C2CC2)n1)N1CCC2(CC(O)c3cc(-c4ccccc4C4CC4)ccc32)C1` (stereo not drawn) [Example 19, (5-(2-cyclopropylphenyl)-3-hydroxy-2,3-dihydrospiro[indene-1,3′-pyrrolidine]-1′-yl)(6-cyclopropylpyridin-2-yl) ketone] it is 70 to 100%. The compound `CC(C)c1ccccc1-c1ccc2c(c1)C(O)CC21CCN(C(=O)c2cccc(C3CC3)n2)C1` (stereo not drawn) [Example 20, (6-cyclopropylpyridin-2-yl)(3-hydroxy-5-(2-isopropylphenyl)-2,3-dihydrospiro[indene-1,3′-pyrrolidine]-1′-yl) ketone] came in with an inhibition at 0.3 µM of 70 to 100%. Turning to `O=C(c1ccc(F)cn1)N1CC[C@]2(C[C@@H](O)c3cc(-c4ccccc4C4CC4)ccc32)C1` [Example 22, ((1R,3R)-5-(2-cyclopropylphenyl)-3-hydroxy-2,3-dihydrospiro[indene-1,3′-pyrrolidine]-1′-yl)(5-fluoropyridin-2-yl)ketone], the inhibition at 0.3 µM was under 25%. `O=C(c1ccc(F)cn1)N1CC[C@]2(C[C@H](O)c3cc(-c4ccccc4C4CC4)ccc32)C1` [Example 23, ((1R,3S)-5-(2-cyclopropylphenyl)-3-hydroxy-2,3-dihydrospiro[indene-1,3′-pyrrolidine]-1′-yl)(5-fluoropyridin-2-yl)ketone] returned an inhibition at 0.3 µM of under 25%.

As for `O=C(c1ccc(F)cn1)N1CC[C@@]2(C[C@H](O)c3cc(-c4ccccc4C4CC4)ccc32)C1` [Example 24, ((1S,3S)-5-(2-cyclopropylphenyl)-3-hydroxy-2,3-dihydrospiro[indene-1,3′-pyrrolidine]-1′-yl)(5-fluoropyridin-2-yl)ketone], the inhibition at 0.3 µM was under 25%.

Values taken from patent US20260174786A1, “A NITROGEN-CONTAINING SPIROCYCLIC COMPOUND, PHARMACEUTICAL COMPOSITION AND USE THEREOF” (Prime Gene Therapeutics Co., Ltd., priority 2022, published 2026).
